Where a name gives a salt, the structure may show the parent alone.

Consider eight molecules from patent US20040106683A1, “Uses of benzylideneamino guanidines as ligands to the melnocortin receptors” (priority 2001, published 2004).

In data set [1] the target is T1, recombinant human MC3 receptor (Homo sapiens, UniProt P41968).
T1 construct: expressed in transfected cells; host or cells: Sf9 insect cells or COS cells
Kind of data set: Affinity for the MC3-receptor, displacement of 125I-NDP-MSH in transfected Sf9 or COS cells. The settings on record: nb = non-binding, i.e. no affinity, read-out: Affinity for MC-receptors, Ki, MC3. As for the experimental part: (§1) Test 2. Affinity for the MC3-Receptors, the MC4-Receptors and the MC5-Receptors
(§2) Essentially, the affinity of the compounds for the different melanocortin receptors were determined by using either insect cells (Sf9) or COS cells, which were transfected with recombinant human MC3, MC4 or MC5 receptors. For the determination of the affinity for the MC1 receptor, B16 mouse melanoma cells were used, which endogenously express the (mouse) MC1 receptor.
(§3) Incubation was performed in 96-well plates, using 50,000 cells/well (Sf9 or COS cells) up to 200,000 cells/well (mouse melanoma cells).
(§4) After the incubation, the cells were washed twice to get rid of the excess tracer and compound, and the cells were lysed with 0.1 M NaOH. The lysate was counted in a gamma-counter, binding was calculated and the affinity determined.

Data set [2] deals with T2, MC1 receptor (Mus musculus, UniProt Q01727).
T2 construct: B16 mouse melanoma cells were used, which endogenously express the (mouse) MC1 receptor; endogenous in cells; host or cells: B16 mouse melanoma cells
T2 sequence (Q01727 whole entry): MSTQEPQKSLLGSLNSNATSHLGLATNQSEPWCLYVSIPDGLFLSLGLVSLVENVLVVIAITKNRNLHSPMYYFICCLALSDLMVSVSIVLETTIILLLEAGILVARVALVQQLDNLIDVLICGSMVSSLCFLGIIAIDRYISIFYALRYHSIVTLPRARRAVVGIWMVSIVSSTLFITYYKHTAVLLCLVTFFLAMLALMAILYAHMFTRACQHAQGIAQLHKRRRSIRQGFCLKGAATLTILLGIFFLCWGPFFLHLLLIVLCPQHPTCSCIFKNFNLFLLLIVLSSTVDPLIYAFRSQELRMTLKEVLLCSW
Nature of the data set: Affinity for the MC1-receptor, displacement of 125I-NDP-MSH in B16 mouse melanoma cells. Conditions: endogenous mouse MC1, nb = non-binding, i.e. no affinity, read-out: Affinity for MC-receptors, Ki, MC1. The method, then: Test 1. Affinity for the MC1-Receptor
as §2, §3, §4

Data set [3] deals with T3, recombinant human MC4 receptor (Homo sapiens, UniProt P32245).
T3 construct: expressed in transfected cells; host or cells: Sf9 insect cells or COS cells
T3 sequence (P32245 whole entry): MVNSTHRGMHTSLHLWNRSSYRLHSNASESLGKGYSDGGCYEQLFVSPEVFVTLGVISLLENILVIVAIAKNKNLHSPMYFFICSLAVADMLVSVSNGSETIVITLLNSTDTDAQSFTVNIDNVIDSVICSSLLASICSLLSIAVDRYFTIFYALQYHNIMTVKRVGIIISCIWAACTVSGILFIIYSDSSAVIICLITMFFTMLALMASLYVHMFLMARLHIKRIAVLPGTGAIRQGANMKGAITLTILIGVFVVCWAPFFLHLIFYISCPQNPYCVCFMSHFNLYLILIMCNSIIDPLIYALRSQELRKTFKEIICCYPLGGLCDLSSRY
Nature of the data set: Affinity for the MC4-receptor, displacement of 125I-NDP-MSH in transfected Sf9 or COS cells. The settings on record: nb = non-binding, i.e. no affinity, read-out: Affinity for MC-receptors, Ki, MC4. As for the experimental part:
as §1, §2, §3, §4

The target of data set [4] is T4, recombinant human MC5 receptor (Homo sapiens, UniProt P33032).
T4 construct: expressed in transfected cells; host or cells: Sf9 insect cells or COS cells
T4 sequence (P33032 whole entry): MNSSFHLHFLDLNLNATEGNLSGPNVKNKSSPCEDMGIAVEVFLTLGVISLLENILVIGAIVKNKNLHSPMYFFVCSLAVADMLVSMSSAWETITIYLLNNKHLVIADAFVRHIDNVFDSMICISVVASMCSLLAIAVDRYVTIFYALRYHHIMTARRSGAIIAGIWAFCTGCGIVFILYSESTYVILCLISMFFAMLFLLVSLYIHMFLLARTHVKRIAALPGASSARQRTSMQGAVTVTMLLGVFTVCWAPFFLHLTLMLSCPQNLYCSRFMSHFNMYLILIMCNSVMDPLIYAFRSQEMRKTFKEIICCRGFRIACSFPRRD
Nature of the data set: Affinity for the MC5-receptor, displacement of 125I-NDP-MSH in transfected Sf9 or COS cells. Conditions: nb = non-binding, i.e. no affinity, read-out: Affinity for MC-receptors, Ki, MC5. The method, then:
as §1, §2, §3, §4

T1 sequence (P41968 whole entry): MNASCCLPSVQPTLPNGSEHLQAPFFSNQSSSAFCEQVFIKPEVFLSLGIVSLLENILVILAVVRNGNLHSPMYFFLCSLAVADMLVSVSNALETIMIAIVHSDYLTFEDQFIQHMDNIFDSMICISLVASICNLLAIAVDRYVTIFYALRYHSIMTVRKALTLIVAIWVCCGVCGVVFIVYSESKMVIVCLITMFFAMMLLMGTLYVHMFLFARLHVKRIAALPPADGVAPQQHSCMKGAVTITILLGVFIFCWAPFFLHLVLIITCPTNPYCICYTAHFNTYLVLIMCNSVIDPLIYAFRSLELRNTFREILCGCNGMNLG

As to `N=C(N)NN=Cc1ccccc1Br` (as salt: HCl) [1:14, N-(2-Bromobenzylideneamino)guanidine], the melting point lay in the range of 197 to 201 °C.

On to `N=C(N)NN=Cc1ccccc1Br` [1:14, N-(2-Bromobenzylideneamino)guanidine], for which the results for the Ki in data set [1], in data set [2] and in data set [3] were 74.6 µM, 0.6 µM and 0.9 µM, respectively.

`N=C(N)NN=Cc1cc(O)ccc1Br` [1:15, N-(2-Bromo-5-Hydroxybenzylideneamino)guanidine]: the inhibitory constant (Ki) in data set [4] was 68 µM; in data set [2], 1.3 µM; in data set [3], 6.8 µM.

The molecule `N=C(N)NN=Cc1cccc(Br)c1` (as salt: salt) [1:21, N-(3-Bromobenzylideneamino)guanidine] gave a melting point of 160 to 161.5 °C.

For the molecule `N=C(N)NN=Cc1cc2c(cc1[N+](=O)[O-])OCO2` [1:17, N-(4,5-Methylenedioxy-2-nitrobenzylideneamino)guanidine], the Ki is above 200 µM in data set [1], above 200 µM in data set [4], 2.1 µM in data set [2] and 28 µM in data set [3].

Regarding `N=C(N)NN=Cc1cc2c(cc1[N+](=O)[O-])OCO2` (as salt: salt) [1:17, N-(4,5-Methylenedioxy-2-nitrobenzylideneamino)guanidine], the melting point is 205 to 212 °C (dec.).

Regarding `N=C(N)NN=Cc1cccc(Br)c1` [1:21, N-(3-Bromobenzylideneamino)guanidine], the Ki amounted to 46 µM in data set [1], 30.6 µM in data set [4], 1.2 µM in data set [2] and 5.4 µM in data set [3].

`N=C(N)NN=Cc1cc(O)ccc1Br` (as salt: HCl) [1:15, N-(2-Bromo-5-Hydroxybenzylideneamino)guanidine]: the melting point is 223 to 228 °C (dec.).
